Measurements reported in US9701689B2, “Substituted pyridines and pyridazines as CCR10 receptor inhibitors” (KYOWA HAKKO KIRIN CO., LTD., priority 2012, dated 2017).

Target: T1, human CCR10 (Homo sapiens, UniProt P46092)
T1 construct: expressed in transfected cells; host or cells: KJMGER8 cells (Namalwa cell-derived line), beta-estradiol-induced; hCCR10G16 cells
T1 sequence (P46092 1-362): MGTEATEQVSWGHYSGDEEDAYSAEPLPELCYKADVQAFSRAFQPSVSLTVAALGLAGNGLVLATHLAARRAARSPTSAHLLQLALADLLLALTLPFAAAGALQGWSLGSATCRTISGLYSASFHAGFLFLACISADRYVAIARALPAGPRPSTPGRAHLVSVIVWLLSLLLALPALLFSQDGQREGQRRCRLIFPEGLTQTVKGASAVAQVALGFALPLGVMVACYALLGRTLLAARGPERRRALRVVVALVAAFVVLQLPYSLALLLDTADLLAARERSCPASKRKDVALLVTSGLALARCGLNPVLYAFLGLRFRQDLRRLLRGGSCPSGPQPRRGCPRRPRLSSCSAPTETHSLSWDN
Test: CCR10 antagonistic effect: calcium assay of human CCR10 (CTACK-induced increase of intracellular calcium in hCCR10G16 cells)
Assay type: cell-based
Details: at a concentration of not more than 1000 nmol/L; human CCR10-expressing hCCR10G16 cells, 300 nmol/L CTACK added; read-out: inhibition of increase in the calcium ion concentration
How it was run: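 KJMGER8-derived hCCR10G16 cells (CCR10 plus Gα16, induced 24 h with 10 nmol/L β-estradiol), Fluo-3 loaded, preincubated with compound 30 min at 37 °C. Stimulated with CTACK (300 nmol/L solution before addition); calcium read ~5 min by FDSS, max−min fluorescence; % inhibition vs control.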

SMILES	inhibition at up to 1 µM
NS(=O)(=O)c1ncc(C(=O)N2CCC3(CC2)COc2ccccc23)c(NC2(c3ccccc3)CC2)c1Cl [Compound 297, 3-chloro-4-(1-phenylcyclopropylamino)-5-(2H-spiro[benzofuran-3,4′-piperidin]-1′-ylcarbonyl)pyridine-2-sulfonamide]	≥ 50%
Cc1c(S(=O)(=O)Nc2ccon2)ncc(C(=O)N2CCC(c3ccc(F)cc3)CC2)c1Nc1ccc(C#N)cc1 [Compound 298, 4-(4-cyanophenylamino)-5-[4-(4-fluorophenyl)piperidine-1-carbonyl]-N-(isoxazol-3-yl)-3-methylpyridine-2-sulfonamide]	≥ 50%
Cc1cc(NS(=O)(=O)c2ncc(C(=O)N3CCC(c4ccc(F)cc4)CC3)c(Nc3ccc(F)cc3)c2C)sn1 [Compound 299, 5-[4-(4-fluorophenyl)piperidine-1-carbonyl]-4-(4-fluorophenylamino)-3-methyl-N-(3-methylisothiazol-5-yl)pyridine-2-sulfonamide]	≥ 50%
Cc1ccc(Nc2c(C(=O)N3CCC(c4ccc(F)cc4)CC3)cnc(S(=O)(=O)Nc3cc(C)ns3)c2C)cc1 [Compound 300, 5-[4-(4-fluorophenyl)piperidine-1-carbonyl]-3-methyl-N-(3-methylisothiazol-5-yl)-4-(p-tolylamino)pyridine-2-sulfonamide]	≥ 50%
Cc1cc(NS(=O)(=O)c2ncc(C(=O)N3CCC(c4ccc(F)cc4)CC3)c(Nc3ccc(F)c(F)c3)c2C)sn1 [Compound 301, 4-(3,4-difluorophenylamino)-5-[4-(4-fluorophenyl)piperidine-1-carbonyl]-3-methyl-N-(3-methylisothiazol-5-yl)pyridine-2-sulfonamide]	≥ 50%
NS(=O)(=O)c1ncc(C(=O)N2CCC(c3ccc(F)cc3)CC2)c(Nc2ccc(Cl)cc2)c1Cl [Compound 302, 3-chloro-4-(4-chlorophenylamino)-5-[4-(4-fluorophenyl)piperidine-1-carbonyl]pyridine-2-sulfonamide]	≥ 50%
CC(=O)c1ccc(C)c(NC2=CC=NC(S(N)(=O)=O)C2(Cl)C(=O)N2CCC(c3ccc(F)cc3)CC2)c1 (stereo not shown) [Compound 303, 4-(5-acetyl-2-methylphenylamino)-3-chloro-3-[4-(4-fluorophenyl)piperidine-1-carbonyl]pyridine-2-sulfonamide]	≥ 50%
COC1(c2ccc(F)cc2)CCN(C(=O)c2cnc(S(N)(=O)=O)c(C)c2Nc2ccccc2C)CC1 [Compound 304, 5-[4-(4-fluorophenyl)-4-methoxypiperidine-1-carbonyl]-3-methyl-4-(o-tolylamino)pyridine-2-sulfonamide]	≥ 50%
Cc1ccccc1Nc1c(C(=O)N2CCC3(CC2)COc2ccccc23)cnc(S(N)(=O)=O)c1C [Compound 305, 3-methyl-5-(2H-spiro[benzofuran-3,4′-piperidin]-1′-ylcarbonyl)-4-(o-tolylamino)pyridine-2-sulfonamide]	≥ 50%
COC1(c2ccc(F)cc2)CCN(C(=O)c2cnc(S(N)(=O)=O)c(Cl)c2Nc2cccc(Cl)c2)CC1 [Compound 306, 3-chloro-4-(3-chlorophenylamino)-5-[4-(4-fluorophenyl)-4-methoxypiperidine-1-carbonyl]pyridine-2-sulfonamide]	≥ 50%
NS(=O)(=O)c1ncc(C(=O)N2CCC3(CC2)COc2ccccc23)c(Nc2cccc(Cl)c2)c1Cl [Compound 307, 3-chloro-4-(3-chlorophenylamino)-5-(2H-spiro[benzofuran-3,4′-piperidine]-1′-ylcarbonyl)pyridine-2-sulfonamide]	≥ 50%
NS(=O)(=O)c1ncc(C(=O)N2CCC(c3ccccc3)CC2)c(Nc2cccc(Cl)c2)c1Cl [Compound 308, 3-chloro-4-(3-chlorophenylamino)-5-(4-phenylpiperidine-1-carbonyl)pyridine-2-sulfonamide]	≥ 50%
Cc1ccc(Cl)cc1Nc1c(C(=O)N2CCC(c3ccccc3)CC2)cnc(S(N)(=O)=O)c1Cl [Compound 309, 3-chloro-4-(5-chloro-2-methylphenylamino)-5-(4-phenylpiperidine-1-carbonyl)pyridine-2-sulfonamide]	≥ 50%
CCc1ccc(Nc2c(C(=O)N3CCC(c4ccc(F)cc4)CC3)cnc(S(N)(=O)=O)c2Cl)cc1 [Compound 310, 3-chloro-4-(4-ethylphenylamino)-5-[4-(4-fluorophenyl)piperidine-1-carbonyl]pyridine-2-sulfonamide]	≥ 50%
Cc1ccc(C(F)(F)F)cc1Nc1c(C(=O)N2CCC(c3ccc(F)cc3)CC2)cnc(S(N)(=O)=O)c1Cl [Compound 311, 3-chloro-5-[4-(4-fluorophenyl)piperidine-1-carbonyl]-4-[2-methyl-5-(trifluoromethyl)phenylamino]pyridine-2-sulfonamide]	≥ 50%
NS(=O)(=O)c1ncc(C(=O)N2CCC(c3ccc(F)cc3)CC2)c(Nc2ccc(OC(F)F)cc2)c1Cl [Compound 312, 3-chloro-4-[4-(difluoromethoxy)phenylamino]-5-[4-(4-fluorophenyl)piperidine-1-carbonyl]pyridine-2-sulfonamide]	≥ 50%
COC1(c2ccc(F)cc2)CCN(C(=O)c2cnc(S(N)(=O)=O)c(Cl)c2Nc2cc(Cl)ccc2C)CC1 [Compound 313, 3-chloro-4-(5-chloro-2-methylphenylamino)-5-[4-(4-fluorophenyl)-4-methoxypiperidine-1-carbonyl]pyridine-2-sulfonamide]	≥ 50%
Cc1ccc(Cl)cc1Nc1c(C(=O)N2CC(c3ccc(F)cc3)C2)cnc(S(N)(=O)=O)c1Cl [Compound 314, 3-chloro-4-(5-chloro-2-methylphenylamino)-5-[3-(4-fluorophenyl)azetidine-1-carbonyl]pyridine-2-sulfonamide]	≥ 50%
Cc1cc(NS(=O)(=O)c2ncc(C(=O)N3CCC(c4ccc(F)cc4)CC3)c(Nc3cc(F)ccc3F)c2C)sn1 [Compound 315, 4-(2,5-difluorophenylamino)-5-[4-(4-fluorophenyl)piperidine-1-carbonyl]-3-methyl-N-(3-methylisothiazol-5-yl)pyridine-2-sulfonamide]	≥ 50%
Cc1cc(NS(=O)(=O)c2ncc(C(=O)N3CCC(c4ccc(F)cc4)CC3)c(Nc3ccc(F)cc3F)c2C)sn1 [Compound 316, 4-(2,4-difluorophenylamino)-5-[4-(4-fluorophenyl)piperidine-1-carbonyl]-3-methyl-N-(3-methylisothiazol-5-yl)pyridine-2-sulfonamide]	≥ 50%
Cc1ccccc1Nc1c(C(=O)N2CCC(c3ccc(F)cc3)CC2)cnc(S(=O)(=O)Nc2ccn(C)n2)c1Cl [Compound 317, 3-chloro-5-[4-(4-fluorophenyl)piperidine-1-carbonyl]-N-(1-methyl-1H-pyrazol-3-yl)-4-(o-tolylamino)pyridine-2-sulfonamide]	≥ 50%
Cc1cc([N+](=O)[O-])ccc1Nc1c(C(=O)N2CCC(c3ccc(F)cc3)CC2)cnc(S(N)(=O)=O)c1Cl [Compound 318, 3-chloro-5-[4-(4-fluorophenyl)piperidine-1-carbonyl]-4-(2-methyl-4-nitrophenylamino)pyridine-2-sulfonamide]	≥ 50%
NS(=O)(=O)c1ncc(C(=O)N2CCC(c3ccc(F)cc3)CC2)c(Nc2cccc(Br)c2)c1Cl [Compound 319, 4-(3-bromophenylamino)-3-chloro-5-[4-(4-fluorophenyl)piperidine-1-carbonyl]pyridine-2-sulfonamide]	≥ 50%
Cc1cc(C#N)c(Nc2c(C(=O)N3CCC(c4ccc(F)cc4)CC3)cnc(S(N)(=O)=O)c2Cl)cc1C [Compound 320, 3-chloro-4-(2-cyano-4,5-dimethylphenylamino)-5-[4-(4-fluorophenyl)piperidine-1-carbonyl]pyridine-2-sulfonamide]	≥ 50%
COc1ccc(C#N)c(Nc2c(C(=O)N3CCC(c4ccc(F)cc4)CC3)cnc(S(N)(=O)=O)c2Cl)c1 [Compound 321, 3-chloro-4-(2-cyano-5-methoxyphenylamino)-5-[4-(4-fluorophenyl)piperidine-1-carbonyl]pyridine-2-sulfonamide]	≥ 50%
N#Cc1ccc([N+](=O)[O-])cc1Nc1c(C(=O)N2CCC(c3ccc(F)cc3)CC2)cnc(S(N)(=O)=O)c1Cl [Compound 322, 3-chloro-4-(2-cyano-5-nitrophenylamino)-5-[4-(4-fluorophenyl)piperidine-1-carbonyl]pyridine-2-sulfonamide]	≥ 50%
Cc1ccc(Cl)cc1Nc1c(C(=O)N2CCC3(CC2)COc2ccccc23)cnc(S(N)(=O)=O)c1Cl [Compound 323, 3-chloro-4-(5-chloro-2-methylphenylamino)-5-(2H-spiro[benzofuran-3,4′-piperidin]-1′-ylcarbonyl)pyridine-2-sulfonamide]	≥ 50%
COc1ccc(Cl)c(Nc2c(C(=O)N3CCC(c4ccc(F)cc4)CC3)cnc(S(N)(=O)=O)c2Cl)c1 [Compound 324, 3-chloro-4-(2-chloro-5-methoxyphenylamino)-5-[4-(4-fluorophenyl)piperidine-1-carbonyl]pyridine-2-sulfonamide]	≥ 50%
